Results reported in ChEMBL document CHEMBL1133620, “Selective cyclooxygenase-2 inhibitors: heteroaryl modified 1,2-diarylimidazoles are potent, orally active antiinflammatory agents” (J Med Chem, 2000).

Legend:
Rattus norvegicus [1] = species: Rattus norvegicus; assay: animal or person; details: read-out: Inhibition
[2] = biological target: Prostaglandin G/H synthase 1 (Homo sapiens, UniProt P23219)
Rattus norvegicus [3] = species: Rattus norvegicus; assay: animal or person; assay type: functional
Rattus norvegicus [4] = species: Rattus norvegicus; assay: animal or person; assay type: functional; remark: listed apart in the source
Rattus norvegicus [5] = species: Rattus norvegicus; details: in vivo, po, 100 mg/kg
Rattus norvegicus [6] = species: Rattus norvegicus; details: in vivo, po, 100 mg/kg; remark: listed apart in the source
Rattus norvegicus [7] = species: Rattus norvegicus; assay: animal or person; assay type: functional; remark: listed apart in the source
in vivo [8] = details: rat, iv, 10 mg/kg
Homo sapiens [9] = species: Homo sapiens; assay: tissue or blood
in vivo [10] = details: rat, iv, 10 mg/kg; remark: listed apart in the source
Rattus norvegicus [11] = species: Rattus norvegicus; details: in vivo, po, 100 mg/kg; remark: listed apart in the source
Rattus norvegicus [12] = species: Rattus norvegicus; details: in vivo, po, 100 mg/kg; remark: listed apart in the source
Homo sapiens [13] = species: Homo sapiens; assay: tissue or blood; remark: listed apart in the source
Rattus norvegicus [14] = species: Rattus norvegicus; details: in vivo, po, 16 mg/kg
Rattus norvegicus [15] = species: Rattus norvegicus; details: in vivo, po, 16 mg/kg; remark: listed apart in the source
Rattus norvegicus [16] = species: Rattus norvegicus; details: in vivo, po, 100 mg/kg; remark: listed apart in the source
in vivo [17] = details: rat, iv, 10 mg/kg; remark: listed apart in the source
in vivo [18] = details: rat, iv, 2 mg/kg
Rattus norvegicus [19] = species: Rattus norvegicus; details: in vivo, po, 100 mg/kg; remark: listed apart in the source
[20] = Rattus norvegicus, read-out: ED50

Sequence of Prostaglandin G/H synthase 1 (P23219 whole entry): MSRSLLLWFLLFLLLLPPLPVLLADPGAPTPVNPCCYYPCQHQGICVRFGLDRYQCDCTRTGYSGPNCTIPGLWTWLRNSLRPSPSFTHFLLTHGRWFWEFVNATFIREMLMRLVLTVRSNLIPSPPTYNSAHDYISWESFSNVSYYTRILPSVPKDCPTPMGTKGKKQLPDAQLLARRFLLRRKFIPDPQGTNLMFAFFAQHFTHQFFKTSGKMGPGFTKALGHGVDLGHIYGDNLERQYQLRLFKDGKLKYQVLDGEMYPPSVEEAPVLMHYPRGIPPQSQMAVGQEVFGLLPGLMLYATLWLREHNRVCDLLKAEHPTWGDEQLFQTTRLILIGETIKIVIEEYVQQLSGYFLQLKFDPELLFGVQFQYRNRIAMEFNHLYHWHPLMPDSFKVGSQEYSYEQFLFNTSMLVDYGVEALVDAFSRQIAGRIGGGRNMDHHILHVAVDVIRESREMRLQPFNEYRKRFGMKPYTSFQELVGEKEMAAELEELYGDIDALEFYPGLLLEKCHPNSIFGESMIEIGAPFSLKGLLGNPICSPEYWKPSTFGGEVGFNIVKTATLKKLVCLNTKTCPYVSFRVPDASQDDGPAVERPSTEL

Row | IC50 [2] | Structure (SMILES) | inhibition in vivo at 2 mg/kg (Rattus norvegicus [1]) | other results
1 | – | NS(=O)(=O)c1ccc(-n2cc(C(F)(F)F)nc2-c2cccs2)cc1 | 95% | –
2 | – | Cc1cccc(-c2nc(C(F)(F)F)cn2-c2ccc(S(C)(=O)=O)cc2)n1 | 92% | –
3 | – | NS(=O)(=O)c1ccc(-n2cc(C(F)(F)F)nc2-c2cncc(Br)c2)cc1 | 26% | –
4 | > 100 µM | CS(=O)(=O)c1ccc(-n2cc(C(F)F)nc2-c2cccnc2)cc1 | – | –
5 | – | Cc1ncccc1-c1nc(C(F)(F)F)cn1-c1ccc(S(N)(=O)=O)cc1 | 100% | ED50 (Rattus norvegicus [3]): 18 mg/kg; ED50 (Rattus norvegicus [4]): 1 mg/kg; No. of animals with damage (Rattus norvegicus [5]): 0; No. of animals with damage (Rattus norvegicus [6]): 0; ED50 (Rattus norvegicus [7]; [20]): 6.9 mg/kg; half-life (in vivo [8]): 4.85 h
6 | – | Cc1cccnc1-c1nc(C(F)(F)F)cn1-c1ccc(S(C)(=O)=O)cc1 | 100% | ED50 (Rattus norvegicus [4]): 0.3 mg/kg; ED50 (Rattus norvegicus [7]): 35%
7 | – | CS(=O)(=O)c1ccc(-n2cc(C(F)(F)F)nc2-c2cccnc2)cc1 | 100% | IC50 (Homo sapiens [9]): 41.6 µM; half-life (in vivo [10]): 11.6 h; ED50 (Rattus norvegicus [3]): 8.2 mg/kg; ED50 (Rattus norvegicus [4]): 0.25 mg/kg; No. of animals with damage (Rattus norvegicus [11]): 0; ED50 (Rattus norvegicus [7]; [20]): 5.4 mg/kg; No. of animals with damage (Rattus norvegicus [12]): 0; IC50 (Homo sapiens [13]): 0.2 µM
8 | – | CS(=O)(=O)c1ccc(-n2cc(C(F)(F)F)nc2-c2nccc3ccccc23)cc1 | 60% | –
9 | – | COc1ccc(-c2nc(C(F)(F)F)cn2-c2ccc(S(C)(=O)=O)cc2)cn1 | 100% | –
10 | > 100 µM | COc1cncc(-c2nc(C(F)(F)F)cn2-c2ccc(S(C)(=O)=O)cc2)c1 | – | –
11 | > 1000 µM | NS(=O)(=O)c1ccc(-n2cc(C(F)(F)F)nc2-c2cccnc2)cc1 | 100% | –
12 | – | Cc1ccc(-c2nc(C(F)(F)F)cn2-c2ccc(S(N)(=O)=O)cc2)cn1 | 100% | –
13 | – | Cc1cccnc1-c1nc(C(F)(F)F)cn1-c1ccc(S(N)(=O)=O)cc1 | 100% | –
14 | – | Cn1cc(-c2nc(C(F)(F)F)cn2-c2ccc(S(C)(=O)=O)cc2)c2ccccc21 | 0% | –
15 | > 100 µM | Cc1ncccc1-c1nc(C(F)(F)F)cn1-c1ccc(S(C)(=O)=O)cc1 | 81% | –
16 | – | Cc1ccccc1-c1nc(C(F)(F)F)cn1-c1ccc(S(C)(=O)=O)cc1 | – | ED50 (Rattus norvegicus [7]; [20]): 18 mg/kg
17 | > 1000 µM | Cc1ccsc1-c1nc(C(F)(F)F)cn1-c1ccc(S(C)(=O)=O)cc1 | 11% | –
18 | > 1000 µM | Cc1csc(-c2nc(C(F)(F)F)cn2-c2ccc(S(N)(=O)=O)cc2)n1 | 100% | ED50 (Rattus norvegicus [3]): 18.5 mg/kg; ED50 (Rattus norvegicus [4]): 0.33 mg/kg; ED50 (Rattus norvegicus [7]; [20]): 13.4 mg/kg
19 | > 100 µM | Cc1ccncc1-c1nc(C(F)(F)F)cn1-c1ccc(S(C)(=O)=O)cc1 | – | –
20 | > 100 µM | CS(=O)(=O)c1ccc(-n2cc(C(F)(F)F)nc2-c2cccc3c2OCO3)cc1 | 11% | –
21 | – | Cc1ccc(-c2nc(C(F)(F)F)cn2-c2ccc(S(C)(=O)=O)cc2)nc1 | 97% | ED50 (Rattus norvegicus [3]): 20 mg/kg; ED50 (Rattus norvegicus [4]): 1 mg/kg
22 | – | Cc1ccc(-c2nc(C(F)(F)F)cn2-c2ccc(S(C)(=O)=O)cc2)cn1 | 93% | ED50 (Rattus norvegicus [3]): 33 mg/kg; ED50 (Rattus norvegicus [4]): 0.2 mg/kg; ED50 (Rattus norvegicus [7]; [20]): 41 mg/kg
23 | – | COc1ccc2c(c1)c(CC(=O)O)c(C)n2C(=O)c1ccc(Cl)cc1 [INDOMETHACIN] | – | ED50 (Rattus norvegicus [4]): 0.1 mg/kg; No. of animals with damage (Rattus norvegicus [14]): 6; No. of animals with damage (Rattus norvegicus [15]): 6

Row | IC50 [2] | Structure (SMILES) | inhibition in vivo at 2 mg/kg (Rattus norvegicus [1]) | other results
24 | > 100 µM | Cc1cn(-c2ccc(S(C)(=O)=O)cc2)c(-c2cccnc2)n1 | – | –
25 | – | Cc1nc(-c2nc(C(F)(F)F)cn2-c2ccc(S(C)(=O)=O)cc2)cs1 | 73% | –
26 | > 1000 µM | Cc1cc(-c2nc(C(F)(F)F)cn2-c2ccc(S(N)(=O)=O)cc2)no1 | 92% | –
27 | – | Cc1cncc(-c2nc(C(F)(F)F)cn2-c2ccc(S(C)(=O)=O)cc2)c1 | 75% | –
28 | > 100 µM | Cc1nc(-c2nc(C(F)(F)F)cn2-c2ccc(S(C)(=O)=O)cc2)co1 | 0% | –
29 | – | CS(=O)(=O)c1ccc(-n2cc(C(F)(F)F)nc2-c2cnc3ccccc3c2)cc1 | 90% | –
30 | – | Cc1cccc(-c2nc(C(F)(F)F)cn2-c2ccc(S(N)(=O)=O)cc2)n1 | 100% | ED50 (Rattus norvegicus [3]): 20.3 mg/kg; ED50 (Rattus norvegicus [4]): 0.64 mg/kg; No. of animals with damage (Rattus norvegicus [11]): 0; ED50 (Rattus norvegicus [7]; [20]): 8.2 mg/kg; No. of animals with damage (Rattus norvegicus [16]): 0
31 | > 1000 µM | CS(=O)(=O)c1ccc(-n2cc(C(F)(F)F)nc2-c2cncc(Br)c2)cc1 | 90% | –
32 | > 1000 µM | CS(=O)(=O)c1ccc(-n2cc(CO)nc2-c2cccnc2)cc1 | – | –
33 | > 1000 µM | Cc1ncc(-c2nc(C(F)(F)F)cn2-c2ccc(S(N)(=O)=O)cc2)s1 | 75% | –
34 | 84 µM | Cc1ccnc(-c2nc(C(F)(F)F)cn2-c2ccc(S(N)(=O)=O)cc2)c1 | 75% | –
35 | 302 µM | Cc1ccc(-c2nc(C(F)(F)F)cn2-c2ccc(S(N)(=O)=O)cc2)nc1 | 100% | –
36 | – | CS(=O)(=O)c1ccc(-n2cc(C(F)(F)F)nc2-c2cccs2)cc1 | 24% | –
37 | – | CS(=O)(=O)c1ccc(-n2cc(C(F)(F)F)nc2-c2ccccc2)cc1 | – | ED50 (Rattus norvegicus [7]; [20]): 0.15 mg/kg
38 | 32 µM | CS(=O)(=O)c1ccc(-n2cc(C(F)(F)F)nc2-c2cc3ccccc3cn2)cc1 | – | –
39 | > 1000 µM | Cc1cncc(-c2nc(C(F)(F)F)cn2-c2ccc(S(N)(=O)=O)cc2)c1 | 96% | ED50 (Rattus norvegicus [3]): 32 mg/kg; ED50 (Rattus norvegicus [4]): 0.67 mg/kg; No. of animals with damage (Rattus norvegicus [11]): 0; ED50 (Rattus norvegicus [7]; [20]): 7.5 mg/kg; No. of animals with damage (Rattus norvegicus [16]): 0; half-life (in vivo [17]): 4.96 h
40 | > 1000 µM | CS(=O)(=O)c1ccc(-n2cc(C(F)(F)F)nc2-c2cc(Br)cs2)cc1 | 75% | –
41 | > 100 µM | NS(=O)(=O)c1ccc(-n2cc(C(F)F)nc2-c2cccnc2)cc1 | 19% | –
42 | – | Cc1nc(-c2nc(C(F)(F)F)cn2-c2ccc(S(N)(=O)=O)cc2)cs1 | 100% | half-life (in vivo [18]): 3.4 h; ED50 (Rattus norvegicus [3]): 14 mg/kg; ED50 (Rattus norvegicus [4]): 0.57 mg/kg; No. of animals with damage (Rattus norvegicus [11]): 0; No. of animals with damage (Rattus norvegicus [19]): 0; ED50 (Rattus norvegicus [7]; [20]): 13.4 mg/kg
43 | – | Cc1ccnc(-c2nc(C(F)(F)F)cn2-c2ccc(S(C)(=O)=O)cc2)c1 | 84% | –
44 | > 100 µM | Cc1ccncc1-c1nc(C(F)(F)F)cn1-c1ccc(S(N)(=O)=O)cc1 | – | –
45 | > 1000 µM | CS(=O)(=O)c1ccc(-n2cc(C(F)(F)F)nc2-c2ccccn2)cc1 | 100% | IC50 (Homo sapiens [9]): > 10 µM; IC50 (Homo sapiens [13]): 0.24 µM
46 | > 100 µM | CS(=O)(=O)c1ccc(-n2cc(C#N)nc2-c2cccnc2)cc1 | – | –
